ChEMBL document CHEMBL2169878 (J Med Chem, 2012)

How the values were obtained:
Heart [1] = assay: Cardiotoxicity against Sprague-Dawley rat Langendorff perfused heart assessed as QT time interval at 30 uM by electrophysiological analysis (reference value: 68.51 2.73 ms); assay type: toxicity, tissue-based
Heart [2] = assay: Cardiotoxicity against Sprague-Dawley rat Langendorff perfused heart assessed as QT time interval at 10 uM by electrophysiological analysis (reference value: 68.51 2.73 ms); assay type: toxicity, tissue-based
[3] = Half life in po dosed human plasma; assay type: ADME, organism-based
Homo sapiens [4] = assay: Volume of distribution in po dosed human measured in plasma; assay type: ADME, organism-based; conditions: in vivo
Salmonella typhimurium [5] = assay: Mutagenicity against Salmonella typhimurium TA100 assessed as revertants at 40 uM incubated for 90 mins followed by drug washout measured after 2 days relative to positive control; assay type: toxicity, organism-based; conditions: salmonella enterica subsp. enterica serovar typhimurium
[6] = Cytotoxicity against human HepG2 cells after 24 hrs by neutral red dye uptake assay; assay type: cell-based; conditions: read-out: TC50
Salmonella typhimurium [7] = assay: Mutagenicity against Salmonella typhimurium TA100 assessed as revertants at 10 uM incubated for 90 mins followed by drug washout measured after 2 days relative to positive control; assay type: toxicity, organism-based; conditions: salmonella enterica subsp. enterica serovar typhimurium
Salmonella typhimurium [8] = assay: Mutagenicity against Salmonella typhimurium TA98 assessed as revertants at 40 uM incubated for 90 mins followed by drug washout measured after 2 days relative to positive control; assay type: toxicity, organism-based; conditions: salmonella enterica subsp. enterica serovar typhimurium
Salmonella typhimurium [9] = assay: Mutagenicity against Salmonella typhimurium TA100 assessed as revertants at 20 uM incubated for 90 mins followed by drug washout measured after 2 days relative to positive control; assay type: toxicity, organism-based; conditions: salmonella enterica subsp. enterica serovar typhimurium, 1.5 h
Salmonella typhimurium [10] = assay: Mutagenicity against Salmonella typhimurium TA98 assessed as revertants at […] incubated for 90 mins followed by drug washout measured after 2 days relative to positive control; assay type: toxicity, organism-based; conditions: salmonella enterica subsp. enterica serovar typhimurium
Salmonella typhimurium [11] = assay: Mutagenicity against Salmonella typhimurium TA98 assessed as revertants at 80 uM incubated for 90 mins followed by drug washout measured after 2 days relative to positive control; assay type: toxicity, organism-based; conditions: salmonella enterica subsp. enterica serovar typhimurium, 1.5 h
Salmonella typhimurium [12] = assay: Mutagenicity against Salmonella typhimurium TA98 assessed as revertants at 10 uM incubated for 90 mins followed by drug washout measured after 2 days relative to positive control; assay type: toxicity, organism-based; conditions: salmonella enterica subsp. enterica serovar typhimurium, 1.5 h
Salmonella typhimurium [13] = assay: Mutagenicity against Salmonella typhimurium TA98 assessed as revertants at 20 uM incubated for 90 mins followed by drug washout measured after 2 days relative to positive control; assay type: toxicity, organism-based; conditions: salmonella enterica subsp. enterica serovar typhimurium, 1.5 h
Salmonella typhimurium [14] = assay: Mutagenicity against Salmonella typhimurium TA100 assessed as revertants at 80 uM incubated for 90 mins followed by drug washout measured after 2 days relative to positive control; assay type: toxicity, organism-based; conditions: salmonella enterica subsp. enterica serovar typhimurium
Salmonella typhimurium [15] = assay: Mutagenicity against Salmonella typhimurium TA98 assessed as revertants at 5 uM incubated for 90 mins followed by drug washout measured after 2 days relative to positive control; assay type: toxicity, organism-based; conditions: salmonella enterica subsp. enterica serovar typhimurium, 1.5 h
Homo sapiens [16] = assay: Volume of distribution in po dosed human measured in whole blood; assay type: ADME, organism-based; conditions: in vivo
Salmonella typhimurium [17] = assay: Mutagenicity against Salmonella typhimurium TA100 assessed as revertants at 5 uM incubated for 90 mins followed by drug washout measured after 2 days relative to positive control; assay type: toxicity, organism-based; conditions: salmonella enterica subsp. enterica serovar typhimurium, 1.5 h
[18] = Cytotoxicity against mouse NIH3T3 cells after 24 hrs by neutral red dye uptake assay; assay type: cell-based; conditions: read-out: TC50
Salmonella typhimurium [19] = assay: Mutagenicity against Salmonella typhimurium TA100 assessed as revertants at […] incubated for 90 mins followed by drug washout measured after 2 days relative to positive control; assay type: toxicity, organism-based; conditions: salmonella enterica subsp. enterica serovar typhimurium

half-life [3] [days] | Vd (Homo sapiens [4]) [L/kg] | Vd (Homo sapiens [16]) [L/kg] | Structure (SMILES) | Time (Heart [1]) [ms] | Time (Heart [2]) [ms] | Activity (Salmonella typhimurium [5]) [%] | CC50 at 24 h [6] [µM] | Activity (Salmonella typhimurium [7]) [%] | Activity (Salmonella typhimurium [8]) [%] | Activity (Salmonella typhimurium [9]) [%] | Activity (Salmonella typhimurium [10]) [%] | Activity (Salmonella typhimurium [11]) [%] | Activity (Salmonella typhimurium [12]) [%] | Activity (Salmonella typhimurium [13]) [%] | Activity (Salmonella typhimurium [14]) [%] | Activity (Salmonella typhimurium [15]) [%] | Activity (Salmonella typhimurium [17]) [%] | CC50 at 24 h [18] [µM] | Activity (Salmonella typhimurium [19]) [%]
– | – | – | CC(C)(C)c1ccc(C(O)CCCN2CCC(C(O)(c3ccccc3)c3ccccc3)CC2)cc1 (centres undefined) [TERFENADINE] | 125 | 99.83 | – | – | – | – | – | – | – | – | – | – | – | – | – | –
20 | 200 | 200 | CCN(CC)CCCC(C)Nc1ccnc2cc(Cl)ccc12 (centres undefined) [CHLOROQUINE] | – | – | 38 | 4.3 | 26 | 19 | 7 | 24 | 50 | 61 | 29 | 23 | 14 | 21 | > 80 | 36
